We go through 2 compounds from patent US20220411414A1, “INHIBITORS FOR THE B-CATENIN/B-CELL LYMPHOMA 9 (BCL9) PROTEIN-PROTEIN INTERACTION” (H. LEE MOFFITT CANCER CENTER AND RESEARCH INSTITUTE, INC., priority 2018, published 2022).

In one assay the target is T1, β-catenin/E-cadherin (Homo sapiens, UniProt P35222).
T1 construct: Full-length β-catenin and (residues 1-781) were cloned into a pET-28b vector carrying a C-terminal 6× histidine; made in house; host or cells: E. coli BL21 DE3
T1 sequence (P35222 1-781): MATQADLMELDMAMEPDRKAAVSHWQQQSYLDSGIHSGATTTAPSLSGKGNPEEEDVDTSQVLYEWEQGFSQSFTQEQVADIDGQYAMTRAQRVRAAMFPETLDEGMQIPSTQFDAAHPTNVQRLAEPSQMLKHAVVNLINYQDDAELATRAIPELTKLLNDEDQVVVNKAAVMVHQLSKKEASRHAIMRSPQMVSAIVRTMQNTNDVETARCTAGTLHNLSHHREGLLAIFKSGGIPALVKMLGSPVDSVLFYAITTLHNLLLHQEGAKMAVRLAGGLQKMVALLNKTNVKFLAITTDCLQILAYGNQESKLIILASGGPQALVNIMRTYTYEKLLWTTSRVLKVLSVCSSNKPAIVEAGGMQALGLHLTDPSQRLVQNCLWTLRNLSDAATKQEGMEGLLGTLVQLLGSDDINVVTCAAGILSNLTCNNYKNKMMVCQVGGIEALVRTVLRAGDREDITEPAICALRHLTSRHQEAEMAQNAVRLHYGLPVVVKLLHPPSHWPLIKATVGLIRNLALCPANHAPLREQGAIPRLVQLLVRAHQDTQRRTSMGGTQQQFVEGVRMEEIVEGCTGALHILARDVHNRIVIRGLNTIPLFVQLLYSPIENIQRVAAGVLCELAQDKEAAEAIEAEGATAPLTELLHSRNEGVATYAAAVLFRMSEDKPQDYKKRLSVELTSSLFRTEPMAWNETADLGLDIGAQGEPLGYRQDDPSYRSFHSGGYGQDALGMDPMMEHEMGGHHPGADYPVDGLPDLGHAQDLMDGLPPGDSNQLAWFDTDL
Briefly: AlphaScreen selectivity assay, β-catenin/E-cadherin PPI. It is filed as binding. To be noted: Table 2, read-out: Ki ± SD β-catenin/E-cadherin. An excerpt: Compounds 4 and 5 were further evaluated with their selectivities for the disruption of β-catenin/BCL9 over β-catenin/E-cadherin interactions using the AlphaScreen selectivity assay (Zhang, M.; Wisniewski, J. A.; Ji, H AlphaScreen selectivity assay for, β-catenin/B-cell lymphoma 9 inhibitors. Anal. Biochen. 2015, 469, 43-53.).
BCL9 peptide synthesis and purification. Human BCL9 (residues 350-375), N-terminally biotinylated human BCL9 (residues 350-375), human E-cadherin (residues 824-877), and N-terminally biotinylated human E-cadherin (residues 824-877) were synthesized by InnoPep Inc. (San Diego, Calif., www.innopep.com). All synthesized peptides were purified by HPLC with purity >95%. […]
For the β-catenin/BCL9 assay, 5 nM of biotinylated BCL9 and 40 nM of His6-tagged β-catenin were incubated in assay buffer at 4° C. for 30 min. […] The IC50 value was determined by nonlinear least-square analysis of GraphPad Prism 5.0. The inhibition constant (Ki) values were derived from the IC50 values using a method reported by Nikolovska-Coleska et al (Nikolovska-Coleska, Z.; Wang, R.; Fang, X.; Pan, H.; Tomita, Y.; Li, P.; Roller, P. P.; Krajewski, K.; Saito, N. G.; Stuckey, J. A.; Wang, S. Development and optimization of a binding assay for the XIAP BIR3 domain using fluorescence polarization, Anal. Biochem. 2004, 332, 261-273.). […] The results were expressed as mean±standard deviation. […]

Assay [1] deals with FOPFlash (three mutant Tcf4 binding sites) luciferase reporter. Description: FOPFlash luciferase reporter assay. To be noted: FIG. 1. It is filed as cell-based. The protocol:
(§1) Cell transfection and luciferase assay. FuGENE6 (E269A, Promega) 96 well plate format was used for the transfection of HEK293 and SW480 cells according to the manufacturer's instruction. HEK293 cells were co-transfected with 45 ng of TOPFlash or FOPFlash reporter gene, 135 ng pcDNA3.1-β-catenin, and 20 ng of pCMV-RL normalization reporter gene. SW480 cells were co-transfected with 60 ng of the TOPFlash or FOPFlash reporter gene and 40 ng of pCMV-RL normalization reporter. Cells were cultured in DMEM and 10% FBS at 37° C. for 24 h, and different concentrations of inhibitors or DMSO was added. After 24 h, the luciferase reporter activity was measured using the Dual-Glo system (E2940, Promega). Normalized luciferase activity in response to the treatment with 4 and 5 was compared with that obtained from the cells treated with DMSO. Experiments were performed in triplicate.

For assay [2], the system named is TOPFlash (three wild-type Tcf binding sites) luciferase reporter. Description: Wnt-responsive TOPFlash luciferase reporter assay, β-catenin-activated HEK239. It is filed as cell-based. Conditions: 24 h treatment, read-out: TOPFlash IC50 ± SD β-catenin-activated HEK239. The protocol:
as §1, with “The TOPFlash luciferase reporter assay (in which the luciferase reporter has three wild-type Tcf4 binding sites) was performed with 4 and 5. Cell transfection” for “Cell transfection”
(In a reporter assay the amount or activity of a reporter protein is the signal.)

For assay [3] the test system is unchanged. Briefly: Wnt-responsive TOPFlash luciferase reporter assay, SW480. The format is cell-based. Conditions: Homo sapiens, 24 h treatment, read-out: TOPFlash IC50 ± SD SW480. The protocol:
as §1, with “The TOPFlash luciferase reporter assay (in which the luciferase reporter has three wild-type Tcf4 binding sites) was performed with 4 and 5. Cell transfection” for “Cell transfection”

The next assay has as its target T2, β-catenin/BCL9 (Homo sapiens, UniProt P35222).
T2 construct: Full-length β-catenin and (residues 1-781) were cloned into a pET-28b vector carrying a C-terminal 6× histidine; made in house; host or cells: E. coli BL21 DE3
T2 sequence (P35222 1-781): T1 sequence (P35222 1-781)
Briefly: AlphaScreen competitive inhibition assay, β-catenin/BCL9 PPI. The format is binding. Conditions: for Ki: AlphaScreen. An excerpt: The biochemical AlphaScreen assay was employed to evaluate the inhibitory potency of these two final products for disruption of the β-catenin/BCL9 PPI.
BCL9 peptide synthesis and purification. Human BCL9 (residues 350-375), N-terminally biotinylated human BCL9 (residues 350-375), human E-cadherin (residues 824-877), and N-terminally biotinylated human E-cadherin (residues 824-877) were synthesized by InnoPep Inc. (San Diego, Calif., www.innopep.com). All synthesized peptides were purified by HPLC with purity >95%. The structures were validated by LC/MS. The sequences are as follows (Ahx, 6-aminohexanoic acid).
For the β-catenin/BCL9 assay, 5 nM of biotinylated BCL9 and 40 nM of His6-tagged β-catenin were incubated in assay buffer at 4° C. for 30 min. For the β-catenin/E-cadherin assay, 10 nM of biotinylated human E-cadherin, and 40 nM of His6-tagged human β-catenin were added and incubated in assay buffer at 4° C. for 30 min. Different concentrations of the tested peptide or inhibitor were added and incubated in 20 μL assay buffer at 4° C. for another 1.5 h. All of the above assay plates were covered and gently mixed on an orbital shaker. The donor and acceptor beads were then added to the plates to a final concentration of 10 μg/mL in 25 μL assay buffer. The mixture was incubated for 1 h at 4° C. before detection. The IC50 value was determined by nonlinear least-square analysis of GraphPad Prism 5.0. The inhibition constant (Ki) values were derived from the IC50 values using a method reported by Nikolovska-Coleska et al (Nikolovska-Coleska, Z.; Wang, R.; Fang, X.; Pan, H.; Tomita, Y.; Li, P.; Roller, P. P.; Krajewski, K.; Saito, N. G.; Stuckey, J. A.; Wang, S. Development and optimization of a binding assay for the XIAP BIR3 domain using fluorescence polarization, Anal. Biochem. 2004, 332, 261-273.). The assays were conducted under the conditions required by Nikolovska-Coleska et al.'s equation for determining the Ki values. All of the experiments were performed in triplicate. The results were expressed as mean±standard deviation. The inhibitor selectivity for, β-catenin/BCL9 over, β-catenin/E-cahderin interactions was defined as the ratio of the respective Ki value of β-catenin/E-cadherin interactions over that of β-catenin/BCL9 interactions.

In a further assay the test system is A549. Description: MTs growth inhibition assay, A549 (Wnt-latent). It is filed as cell-based. To be noted: Homo sapiens, read-out: MTs IC50 ± SD A549.
For assay [4], the target named is T3, β-catenin/BCL9 interaction (Homo sapiens, UniProt P35222).
T3 sequence (P35222 1-781): T1 sequence (P35222 1-781)
Conditions: literature; cited from earlier work.

Another assay concerns the target T4, activated β-catenin (Homo sapiens, UniProt P35222).
T4 sequence (P35222 1-781): T1 sequence (P35222 1-781)
To be noted: literature; cited from earlier work.

In another assay the test system is Wnt target genes. To be noted: literature; cited from earlier work.

Consider `Cl.Cl.O=C(Nc1ccc(O[C@@H]2CCNC2)c(-c2cccc(-c3nn[nH]n3)c2)c1)c1ccc(O[C@H]2CCNC2)c(-c2ccc3ccsc3c2)c1` [Compound 5, (R)-3-((5-(3-(benzo[b]thiophen-6-yl)-4-(((S)-pyrrolidin-1-ium-3-yl)oxy)benzamido)-3′-(2H-tetrazol-5-yl)-[1,1′-biphenyl]-2-yl)oxy) pyrrolidin-1-ium chloride], for which the Ki on β-catenin/E-cadherin was more than 915 µM; on β-catenin/BCL9 (Table 1, mean ± SD (n = 3)), 1.6 ± 0.23 µM; on β-catenin/BCL9 (Table 2, mean ± SD (n = 3)) it was 1.6 ± 0.23 µM. Further, the FOPFlash luciferase activity entry in [1] is listed as “did not inhibit”. Moreover, the results for the IC50 (in [2]; in [3]; in the assay on A549) were 50 ± 5.2 µM, 43 ± 3.4 µM and more than 400 µM, respectively. In addition, the “selectivity for β-catenin/BCL9 over β-catenin/E-cadherin PPIs (in words)” value on β-catenin/BCL9 (AlphaScreen biochemical assay) was “exceptionally high selectivity”. The “Selectivity BCL9/cadherin” value on β-catenin/BCL9 (ratio of Ki β-catenin/E-cadherin over Ki β-catenin/BCL9) is recorded as more than 570.
On to `CC(C)c1cc2c(c(O)c1O)[C@@]1(C(=O)O)CCCC(C)(C)[C@@H]1CC2` [carnosic acid], for which the “disruption of the β-catenin/BCL9 interaction” value in [4] is given as “can disrupt the β-catenin/BCL9 interaction”. In addition, the “destabilization of activated β-catenin” value on activated β-catenin is on record as “destabilize”. The “transcription of Wnt target genes / β-catenin-dependent transcription” value in the assay on Wnt target genes is on record as “inhibit”.

Broadly, the IC50 is the concentration that gives 50% inhibition.
